Experimental findings from ChEMBL document CHEMBL1153914, “Synthesis, binding affinity and SAR of new benzolactam derivatives as dopamine D3 receptor ligands” (Bioorg Med Chem Lett, 2009) are described below.

The target of assay [1] is T1, D(1A) dopamine receptor (Homo sapiens, UniProt P21728). Nature of the assay: Displacement of [3H]SCH23390 from human dopamine D1 receptor. (Loss of bound radioactivity is the signal in a displacement assay; it reports binding, not function.)
For assay [2], the target named is T2, D(2) dopamine receptor (Homo sapiens, UniProt P14416). Nature of the assay: Displacement of [3H]spiperone from human dopamine D2 receptor at 10 uM.
T2 sequence (P14416 whole entry): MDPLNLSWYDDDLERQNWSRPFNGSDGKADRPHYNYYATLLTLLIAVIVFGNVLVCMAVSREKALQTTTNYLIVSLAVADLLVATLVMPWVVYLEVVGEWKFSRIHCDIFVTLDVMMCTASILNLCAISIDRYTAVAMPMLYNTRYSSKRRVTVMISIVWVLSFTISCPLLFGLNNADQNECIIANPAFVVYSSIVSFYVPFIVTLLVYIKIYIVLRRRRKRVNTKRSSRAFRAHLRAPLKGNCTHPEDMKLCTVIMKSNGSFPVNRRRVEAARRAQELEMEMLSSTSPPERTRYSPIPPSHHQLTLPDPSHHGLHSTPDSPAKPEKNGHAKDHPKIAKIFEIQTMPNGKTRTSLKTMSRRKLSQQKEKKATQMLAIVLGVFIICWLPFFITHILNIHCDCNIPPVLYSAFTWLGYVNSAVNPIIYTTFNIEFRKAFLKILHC
Assay [3] addresses D(3) dopamine receptor (Homo sapiens, UniProt P35462). Nature of the assay: Displacement of [3H]spiperone from human dopamine D3 receptor.
In assay [4] the target is T1, D(1A) dopamine receptor. Nature of the assay: Displacement of [3H]SCH23390 from human dopamine D1 receptor at 10 uM.
The target of assay [5] is T2, D(2) dopamine receptor. In words: Displacement of [3H]spiperone from human dopamine D2 receptor.
For assay [6], the species on record is Homo sapiens. Nature of the assay: Selectivity ratio of Ki for human dopamine D2 receptor to Ki for human dopamine D3 receptor.
Assay [7] can be described thus: Selectivity for dopamine D3 receptor over dopamine D2 receptor.
For assay [8], the target named is 5-hydroxytryptamine receptor 2A (Homo sapiens, UniProt P28223). Nature of the assay: Displacement of [3H]ketanserin from 5HT2A receptor.
5-hydroxytryptamine receptor 2A, sequence (P28223 whole entry): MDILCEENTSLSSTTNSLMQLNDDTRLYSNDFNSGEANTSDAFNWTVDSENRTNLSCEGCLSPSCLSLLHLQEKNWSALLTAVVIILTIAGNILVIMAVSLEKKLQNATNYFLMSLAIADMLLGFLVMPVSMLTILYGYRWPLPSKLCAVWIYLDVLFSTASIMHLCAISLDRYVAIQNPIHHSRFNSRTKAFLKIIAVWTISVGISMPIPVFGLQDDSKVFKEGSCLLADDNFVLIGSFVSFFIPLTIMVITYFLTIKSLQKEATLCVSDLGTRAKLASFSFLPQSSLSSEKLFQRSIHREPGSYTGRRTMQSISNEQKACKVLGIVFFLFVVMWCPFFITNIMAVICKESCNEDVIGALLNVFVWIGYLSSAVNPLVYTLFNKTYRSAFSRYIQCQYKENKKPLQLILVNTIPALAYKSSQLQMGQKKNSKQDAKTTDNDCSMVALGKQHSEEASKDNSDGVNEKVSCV

Structures are written as SMILES.

T1 sequence (P21728 whole entry): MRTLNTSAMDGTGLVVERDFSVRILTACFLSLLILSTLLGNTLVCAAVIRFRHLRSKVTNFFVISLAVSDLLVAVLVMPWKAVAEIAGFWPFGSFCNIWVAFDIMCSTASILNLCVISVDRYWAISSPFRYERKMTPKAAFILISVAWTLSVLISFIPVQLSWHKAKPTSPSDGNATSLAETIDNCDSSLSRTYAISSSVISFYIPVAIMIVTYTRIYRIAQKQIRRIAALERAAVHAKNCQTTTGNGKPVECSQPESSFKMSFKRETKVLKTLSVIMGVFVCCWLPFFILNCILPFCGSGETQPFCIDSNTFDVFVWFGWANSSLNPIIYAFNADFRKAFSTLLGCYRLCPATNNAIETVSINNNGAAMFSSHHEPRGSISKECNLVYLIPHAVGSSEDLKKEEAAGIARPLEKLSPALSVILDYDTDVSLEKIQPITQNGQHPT
D(3) dopamine receptor, sequence (P35462 whole entry): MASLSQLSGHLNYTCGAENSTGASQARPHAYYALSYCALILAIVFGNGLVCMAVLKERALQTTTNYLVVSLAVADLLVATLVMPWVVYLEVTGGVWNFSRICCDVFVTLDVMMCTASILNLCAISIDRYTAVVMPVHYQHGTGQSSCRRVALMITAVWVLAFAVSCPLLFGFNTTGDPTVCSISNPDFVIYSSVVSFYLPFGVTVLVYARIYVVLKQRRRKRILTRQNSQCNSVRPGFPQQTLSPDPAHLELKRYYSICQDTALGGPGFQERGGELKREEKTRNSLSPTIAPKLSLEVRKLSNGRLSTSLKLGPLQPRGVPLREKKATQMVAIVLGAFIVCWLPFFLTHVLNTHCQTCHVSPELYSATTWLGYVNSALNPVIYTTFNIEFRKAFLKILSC

For `O=C1c2ccccc2CCN1CCCN1CCN(c2ccccn2)CC1`, the Ki was 1700 nM in assay [1] and 8320 nM in assay [3] (read-out: pKi (converted)). Further, the Activity in assay [2] came to 12.4%.

Regarding `COc1ccccc1N1CCN(CCCCN2CCc3ccccc3C2=O)CC1`, in assay [4], the Activity stood at 61.1%. In assay [5], the Ki is 12.3 nM.

For `COc1ccc(N2CCN(CCCCN3CCCc4ccccc4C3=O)CC2)cc1`, the values for the Activity in assay [2] and in assay [4] were 59% and 47.5%, respectively. Besides, in assay [3] (read-out: Ki), the Ki was found to be 40 nM.

Take `O=C1c2ccccc2CCN1CCCN1CCN(c2cccc(Cl)c2Cl)CC1`: the Ki in assay [1] is 1450 nM; in assay [3] (read-out: pKi (converted)) it was 209 nM. In assay [2], the Activity turned out to be 59.9%.

Consider `O=C1c2ccccc2CCCN1CCCN1CCN(c2ncccn2)CC1`, for which the Activity in assay [2] came to 36.4%; in assay [4], 46%. Moreover, in assay [3] (read-out: pKi (converted)), the Ki is 8320 nM.

For `COc1ccc(N2CCN(CCCN3CCc4ccccc4C3=O)CC2)cc1`, the Activity was found to be 1.35% in assay [2] and 43.5% in assay [4]. Besides, in assay [3] (read-out: pKi (converted)), the Ki was 10000 nM.

In the case of `O=C1c2ccccc2CCN1CCCCN1CCN(c2cccc(Cl)c2Cl)CC1`, the Ki is 1780 nM in assay [1], 162 nM in assay [3] (read-out: pKi (converted)) and 11.5 nM in assay [5].

As to `COc1cccc(N2CCN(CCCCN3CCc4ccccc4C3=O)CC2)c1`, the Ki in assay [1] was 427 nM; in assay [3] (read-out: pKi (converted)), 40.7 nM; in assay [5], 158 nM.

For `O=C1c2ccccc2CCCN1CCCN1CCN(c2cccc(Cl)c2Cl)CC1`, the results for the Ki in assay [1], in assay [3] (read-out: pKi (converted)) and in assay [5] were 2400 nM, 389 nM and 219 nM, respectively.

Take `O=C1c2ccccc2CCN1CCCCN1CCN(c2ccccc2Cl)CC1`: the Ki is 347 nM in assay [1], 6.76 nM in assay [3] (read-out: pKi (converted)) and 35.5 nM in assay [5]. The Ratio Ki in assay [6] came out at 5.2.

For the compound `O=C1c2ccccc2CCCN1CCCCN1CCN(c2ccccn2)CC1`, the Ki in assay [1] was 282 nM; in assay [3] (read-out: pKi (converted)), 398 nM; in assay [5], 229 nM.

In the case of `COc1ccccc1N1CCN(CCCN2CCCc3ccccc3C2=O)CC1`, the Ki in assay [1] is 2510 nM; in assay [3] (read-out: pKi (converted)) it was 209 nM; in assay [5], 794 nM.

Turning to `O=C1c2ccccc2CCCN1CCCCN1CCN(c2ncccn2)CC1`, the Ki in assay [1] is 8710 nM; in assay [3] (read-out: pKi (converted)), 631 nM; in assay [5] it was 151 nM.

Turning to `COc1ccc(N2CCN(CCCCN3CCc4ccccc4C3=O)CC2)cc1`, the Activity in assay [2] is 33.2%; in assay [4], 34.2%. In assay [3] (read-out: pKi (converted)), the Ki is 490 nM.

Regarding `COc1ccccc1N1CCN(CCCCCN2CCc3ccccc3C2=O)CC1`, the Ki in assay [1] was 977 nM; in assay [3] (read-out: pKi (converted)), 32.4 nM; in assay [5], 20.4 nM.

With `O=C1c2ccccc2CCN1CCCN1CCN(c2cccc(C(F)(F)F)c2)CC1`, the Ki in assay [1] is 1740 nM; in assay [3] (read-out: pKi (converted)), 2400 nM. Also, the Activity in assay [2] was found to be 52.4%.

For `O=C1c2ccccc2CCN1CCCN1CCN(c2ncccn2)CC1`, the values for the Activity in assay [2] and in assay [4] were 0.36% and 40.8%, respectively. The Ki in assay [3] (read-out: pKi (converted)) is 24500 nM.

Take `O=C(NCCCCN1CCN(c2cccc(Cl)c2Cl)CC1)c1cc2ccccc2s1`: the Selectivity ratio in assay [7] was 7200.

Regarding `O=C1c2ccccc2CCN1CCCCN1CCN(c2ncccn2)CC1`, the Activity in assay [2] stood at 60.5%; in assay [4], 31.6%. The Ki in assay [3] (read-out: pKi (converted)) was 1510 nM.

On to `O=C1c2ccccc2CCN1CCCCN1CCN(c2ccccn2)CC1`, for which, in assay [1], the Ki was 2040 nM. The Activity in assay [2] amounted to 57.5%.

As to `COc1ccccc1N1CCN(CCCCN2CCCc3ccccc3C2=O)CC1`, the Ki is 2690 nM in assay [1], 1.58 nM in assay [3] (read-out: pKi (converted)) and 3.63 nM in assay [5]. In addition, the Ratio Ki in assay [6] was determined as 2.2.

Regarding `COc1ccc(N2CCN(CCCN3CCCCc4ccccc4C3=O)CC2)cc1`, the values for the Activity in assay [2] and in assay [4] were 13.1% and 58.9%, respectively. Also, the Ki in assay [3] (read-out: pKi (converted)) is 8910 nM.

For the compound `COc1ccc(N2CCN(CCCN3CCCc4ccccc4C3=O)CC2)cc1`, the Activity in assay [2] was 1.1%; in assay [4], 42.8%. The Ki was 1100 nM in assay [3] (read-out: pKi (converted)) and more than 100000 nM in assay [5].

With `O=C1c2ccccc2CCCN1CCCN1CCN(c2ccccn2)CC1`, the Activity in assay [2] was determined as 26.3%; in assay [4], 57%. In assay [3] (read-out: pKi (converted)), the Ki is 4170 nM.

For the compound `O=C1c2ccccc2CCCN1CCCCN1CCN(c2cccc(Cl)c2Cl)CC1`, the Ki was 10 nM in assay [8], 1740 nM in assay [1], 14.5 nM in assay [3] (read-out: pKi (converted)) and 36.3 nM in assay [5]. The Ratio Ki in assay [6] came to 2.5.

In the case of `COc1ccccc1N1CCN(CCCN2CCc3ccccc3C2=O)CC1`, the Activity in assay [2] is 50.4%; in assay [4], 59.5%. In assay [3] (read-out: pKi (converted)), the Ki is 1580 nM.

Take `O=C1c2ccccc2CCCN1CCCN1CCN(c2cccc(C(F)(F)F)c2)CC1`: the Ki in assay [1] is 4900 nM; in assay [3] (read-out: pKi (converted)), 1050 nM. In addition, the Activity in assay [2] was determined as 55.5%.
